Experimental data: publication PMC5116089, “Sulfheme formation during homocysteine S-oxygenation by catalase in cancers and neurodegenerative diseases” (Nature Communications, 2016)
Each block holds one compound with its values, some of them ahead of it.

Experiments:
Bovine liver catalase [1] = target: T1, Bovine liver catalase (Bos taurus, UniProt P00432); assay: Time course of catalase inactivation by HCys (activity test); format: biochemical; settings: CAT + 2 mM HCys, 1 mM DTPA, pH 7.4, with the additive named (DMPO 100 mM, dimedone 4 mM, SOD 40 U); n=2±s.d.
T1 construct: Bovine liver catalase was also purchased from Sigma-Aldrich; purchased Sigma-Aldrich; host or cells: bovine liver
T1 sequence (P00432 2-527 limits assumed): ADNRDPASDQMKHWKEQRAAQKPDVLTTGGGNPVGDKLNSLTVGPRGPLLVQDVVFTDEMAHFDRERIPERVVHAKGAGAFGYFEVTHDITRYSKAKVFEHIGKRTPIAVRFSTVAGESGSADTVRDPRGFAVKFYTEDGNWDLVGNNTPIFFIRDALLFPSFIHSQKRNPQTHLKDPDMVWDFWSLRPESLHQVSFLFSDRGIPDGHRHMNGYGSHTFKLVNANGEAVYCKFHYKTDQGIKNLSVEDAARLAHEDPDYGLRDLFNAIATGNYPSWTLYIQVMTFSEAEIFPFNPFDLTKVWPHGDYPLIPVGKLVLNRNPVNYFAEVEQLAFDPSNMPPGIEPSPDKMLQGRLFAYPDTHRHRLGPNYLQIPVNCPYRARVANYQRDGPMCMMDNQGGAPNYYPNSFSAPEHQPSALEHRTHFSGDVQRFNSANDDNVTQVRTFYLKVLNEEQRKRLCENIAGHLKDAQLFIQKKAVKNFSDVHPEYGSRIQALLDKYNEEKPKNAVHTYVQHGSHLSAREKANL
Experimental: CAT activity was measured on an Uvikon 941 spectrophotometer equipped with a temperature controlled water bath (±1 °C) by following the disappearance of H2O2 at 240 nm over 30–120 s at 25 °C. Catalase activity was calculated based on the rate of decomposition of hydrogen peroxide, which is proportional to the reduction of the absorbance at 240 nm. Experiments were carried out in a 3 ml quartz cuvette containing 11.7 mM H2O2 in 50 mM KPi, pH 7.4±1 mM DTPA and the reaction was initiated by adding 0.3–0.6 pmoles of CAT. The effect of biological thiols on the activity of CAT under physiological conditions was determined from a solution of CAT (30–60 nM) preincubated at 25 °C for at least 120 min as a function thiol concentration (0–40 mM for HCys and Cys, 0–100 mM for GSH) in 50 mM KPi, pH 7.4, 1 mM DTPA. Control experiments (biological thiols alone) were also performed in parallel. In each case, 10 μl of the reaction mixture (biological thiols±CAT) was added to the cuvette containing the H2O2 solution to initiate the reaction. Similarly, the effect of biological thiols on the activity of CAT under pathological conditions was determined from a solution of CAT (30–60 nM) containing a 2.124±0.386 molar excess of iron that was preincubated with various concentrations of thiols (0–1 mM) for at least 120 min at 25 °C in 50 mM KP at pH 7.4. The relative half inhibitory concentration (IC50) values were obtained by plotting the relative activity of CAT (A, in per cent) as a function of the concentration of thiol-compounds (RSH) and by fitting the data with the following four parameter logistic equation: A=Amin+(Amax−Amin)/(1+([RSH]/IC50)^n), where Amax is the maximal activity of CAT (constrained at 100%), Amin is the minimum activity achieved at saturating concentration of RSH and n is the Hillslope that characterizes the slope of the curve at its midpoint. The inactivation rate (kinact, min^−1) was extracted from the time course of the inactivation of CAT bioactivity using a fixed concentration of HCys. Accordingly, a solution of CAT (3.5–5 μM) was incubated with 2 mM L-HCys in 50 mM KPi, pH 7.4, 1 mM DTPA. Aliquots (10 μl) were taken at intervals (0–480 min), diluted 1:50 in 50 mM KPi, pH 7.4, 1 mM DTPA and assayed for CAT activity as described above. […] The effect of NaSH on the consumption of H2O2 in cell lysates was determined from a solution of cell lysates (0.5–3 mg ml^−1) incubated on ice with various concentrations of NaSH (0–200 μM). […]

Bovine liver catalase [2] = target: T1, Bovine liver catalase; assay: Comparative kinetic studies by ultraviolet-visible spectroscopy (compound II and Fe(II) sulfonium formation); format: biochemical; settings: CAT + 2 mM HCys, 1 mM DTPA, pH 7.4, with the additive named (dimedone 4 mM, BCN 0.1 mM, SOD 40 U)
Experimental: Ultraviolet–visible spectra were recorded on a Cary 300 Scan or an Uvikon 941 spectrophotometer equipped with a temperature equilibrating water bath (±1 °C). Spectral changes over time were recorded when CAT was incubated with L-HCys (0.2 or 2 mM), L-Cys (0.2, 2 or 9 mM) or GSH (1 or 30 mM) at 25 °C in a 1 ml quartz cuvette containing a solution of CAT (2.7–5.9 μM) in 50 mM KPi, pH 7.4±1 mM DTPA. Due to half-site reactivity of biological thiols with CAT, the data were recorded versus a blank containing half the concentrations of CAT used in the experiments, that is, a solution of 1.35–2.95 μM CAT in 50 mM KPi at pH 7.4±1 mM DTPA. Reactions were initiated by addition of the thiol-containing compounds. Comparative kinetic studies were performed by incubating CAT ([…] in the experiment, 1.35–1.5 μM in the blank) with 2 mM L-HCys in 50 mM KPi, pH 7.4, 1 mM DTPA with or without […], 5,5-dimethyl-1,3-cyclohexanedione (dimedone, 4 mM), BCN (0.1 mM) or SOD, 40 U). All the experiments were performed at least in duplicate.

Bovine liver catalase [3] = target: T1, Bovine liver catalase; assay: Catalase activity (H2O2 disappearance at 240 nm) as a function of thiol concentration; format: biochemical; settings: DTPA 0-10 mM, CAT 40 nM pre-incubated 120 min, 25 °C
Experimental: CAT activity was measured on an Uvikon 941 spectrophotometer equipped with a temperature controlled water bath (±1 °C) by following the disappearance of H2O2 at 240 nm over 30–120 s at 25 °C. Catalase activity was calculated based on the rate of decomposition of hydrogen peroxide, which is proportional to the reduction of the absorbance at 240 nm. Experiments were carried out in a 3 ml quartz cuvette containing 11.7 mM H2O2 in 50 mM KPi, pH 7.4±1 mM DTPA and the reaction was initiated by adding 0.3–0.6 pmoles of CAT. The effect of biological thiols on the activity of CAT under physiological conditions was determined from a solution of CAT (30–60 nM) preincubated at 25 °C for at least 120 min as a function thiol concentration (0–40 mM for HCys and Cys, 0–100 mM for GSH) in 50 mM KPi, pH 7.4, 1 mM DTPA. Control experiments (biological thiols alone) were also performed in parallel. In each case, 10 μl of the reaction mixture (biological thiols±CAT) was added to the cuvette containing the H2O2 solution to initiate the reaction. Similarly, the effect of biological thiols on the activity of CAT under pathological conditions was determined from a solution of CAT (30–60 nM) containing a 2.124±0.386 molar excess of iron that was preincubated with various concentrations of thiols (0–1 mM) for at least 120 min at 25 °C in 50 mM KP at pH 7.4. The relative half inhibitory concentration (IC50) values were obtained by plotting the relative activity of CAT (A, in per cent) as a function of the concentration of thiol-compounds (RSH) and by fitting the data with the following four parameter logistic equation: A=Amin+(Amax−Amin)/(1+([RSH]/IC50)^n), where Amax is the maximal activity of CAT (constrained at 100%), Amin is the minimum activity achieved at saturating concentration of RSH and n is the Hillslope that characterizes the slope of the curve at its midpoint. The inactivation rate (kinact, min^−1) was extracted from the time course of the inactivation of CAT bioactivity using a fixed concentration of HCys. Accordingly, a solution of CAT (3.5–5 μM) was incubated with 2 mM L-HCys in 50 mM KPi, pH 7.4, 1 mM DTPA. Aliquots (10 μl) were taken at intervals (0–480 min), diluted 1:50 in 50 mM KPi, pH 7.4, 1 mM DTPA and assayed for CAT activity as described above. Similar experiments were performed in the presence of DMPO, 5,5-dimethyl-1,3-cyclohexanedione (dimedone) or SOD at a final concentration of 100 mM, 4 mM or 40 U, respectively. kinact values were obtained by plotting the relative activity of CAT (A, in per cent) as a function of the incubation time and the data were fitted with an exponential decay function: A=A0+ΔA × e^−kinact × t, with A0 and ΔA (A0+ΔA=100%) the residual activity and the percentage of CAT inhibition when t→∞, respectively. The effect of NaSH on the consumption of H2O2 in cell lysates was determined from a solution of cell lysates (0.5–3 mg ml^−1) incubated on ice with various concentrations of NaSH (0–200 μM). The disappearance of H2O2 was then followed at 240 nm for 2–5 min at 25 °C after the addition of 20–25 μl of the reaction mixture in a 3 ml cuvette containing 11.7 mM H2O2 in 50 mM KPi, pH 7.4. The relative half inhibitory concentration (IC50) values for NaSH were obtained by plotting the relative rate of disappearance of H2O2 (ΔA240 nm/min) as a function of the concentration of NaSH and by fitting the data with an hyperbolic decay equation. All the experiments were performed at least in triplicate.

[4] = system: M17 human neuroblastoma cells; assay: Relative specific activity of catalase (SpCAT) in cells treated with rotenone; format: cell-based; settings: BE2-M17 cells, 100 nM rotenone, 48 h
Experimental: Hek293T cells (n=2) were plated and transfected the following day with pcDNA (empty vector), Htt-N171-82Q (Htt) or Alpha-synuclein-A53T (α-Syn) plasmids (20 μg) with the calcium phosphate method. BE2-M17 cells (n=2) were plated and treated the following day with 100 nM rotenone dissolved in DMSO or DMSO alone. Hek293T and BE2-M17 cells were collected 48 h after transfection or treatment with DMSO±rotenone, respectively.
The relative specific activity (activity and quantity) of catalase in the cell lysates was determined using the kit ab118184 from Abcam (Cambridge, MA). The measurements were performed in duplicate as per the manufacturer's protocol. Briefly, catalase in cell lysates (0.1–0.2 mg cell lysates per assay) was immunocaptured within the wells of the microplate. An assay buffer, which contains H2O2 that reacts with a substrate to generate a luminescent product, was added to each well. […] Then, the quantity of catalase was measured by adding to each well an anti-catalase primary detector antibody. […] A blue colour (absorbance at 600 nm) developed in proportion to the amount of catalase bound. Luminescence and absorbance measurements were performed on an EnSpire Multilabel Reader 2300 (PerkinElmer). […] The protocol above was then followed to determine activity measurement and catalase quantification.

[5] = system: crypt and surface epithelial cells; assay: Relative specific activity of catalase (SpCAT) in rodent model of DSS-induced colitis; format: in vivo, mice; settings: DSS 3.5% in drinking water for 5 days, cells isolated day 7
Experimental: Seven-week-old male C57BL/6J mice (n=6; Envigo, Gannat, France) were acclimated for 1 week with free access to standard mouse chow and tap water. Each mouse was maintained in a cage under controlled conditions of temperature (23 °C), humidity (55±10%) and light (12:12 h light–dark cycle). Colitis was induced by the addition of DSS (3.5% (wt/vol), 36,000–50,000 MW, MP Biomedicals Illkirch-Graffenstaden, France) to the drinking water for 5 days (n=3). Healthy control animals (n=3) received fresh tap water, only. Two days after DSS arrest (day 7), mice were killed. […]
The relative specific activity (activity and quantity) of catalase in the cell lysates was determined using the kit ab118184 from Abcam (Cambridge, MA). […] Then, the quantity of catalase was measured by adding to each well an anti-catalase primary detector antibody. […] A blue colour (absorbance at 600 nm) developed in proportion to the amount of catalase bound. Luminescence and absorbance measurements were performed on an EnSpire Multilabel Reader 2300 (PerkinElmer). […] The protocol above was then followed to determine activity measurement and catalase quantification.

Compound: C=C(C)[C@H]1Cc2c(ccc3c2O[C@@H]2COc4cc(OC)c(OC)cc4[C@@H]2C3=O)O1 [rotenone]
SpCAT versus control [4]: inhibited

Compound: Dextran Sulfate Sodium [DSS]
SpCAT versus untreated mice [5]: not modified

Compound: bicyclo[6.1.0]nonyne [BCN]
Ultraviolet–visible spectroscopy kobs(6) (CAT–Fe(IV)=O formation) (Bovine liver catalase [2]): 0.018 ± 0.002 min⁻¹

More lines, main results first:

kinact (Bovine liver catalase [1]): 0.00015 s⁻¹
Ultraviolet–visible spectroscopy kobs(6) (CAT–Fe(IV)=O formation) (Bovine liver catalase [2]): 0.010 ± 0.002 min⁻¹
Compound: CC1(C)CCC=[N+]1[O-] [DMPO, 5,5-Dimethyl-1-Pyrroline-N-Oxide]

effect on the activity of CAT (Bovine liver catalase [3]): does not interfere
Compound: O=C(O)CN(CCN(CC(=O)O)CC(=O)O)CCN(CC(=O)O)CC(=O)O [DTPA, diethylene triamine pentaacetic acid]

kinact (Bovine liver catalase [1]): 0.0003 s⁻¹
Ultraviolet–visible spectroscopy kobs(6) (CAT–Fe(IV)=O formation) (Bovine liver catalase [2]): ^†0.019±0.003 min^−1
Compound: CC1(C)CC(=O)CC(=O)C1 [Dimedone, 5,5-dimethyl-1,3-cyclohexanedione]

Activity test kinact (Bovine liver catalase [1]): 0.018 ± 0.001 min⁻¹
Compound: superoxide dismutase [SOD]
Ultraviolet–visible spectroscopy kobs(6) (CAT–Fe(IV)=O formation) (Bovine liver catalase [2]): 0.020 ± 0.002 min⁻¹
